Article PMC9680032, “Conformationally Locked Carbocyclic Nucleosides Built on a 4′-Hydroxymethyl-3′-hydroxybicyclo[4.1.0]heptane Template. Stereoselective Synthesis and Antiviral Activity” (The Journal of Organic Chemistry, 2022)
≈ marks a conversion by molar mass, not a printed value.

B1: UDA: reference agent against Human Coronavirus (229E) in Table S1 (protein, UniProt P11218 24-372, looked up)
Lectin/endochitinase 1: QRCGSQGGGGTCPALWCCSIWGWCGDSEPYCGRTCENKCWSGERSDHRCGAAVGNPPCGQDRCCSVHGWCGGGNDYCSGSKCQYRCSSSVRGPRVALSGNSTANSIGNVVVTEPLFDQMFSHRKDCPSQGFYSYHSFLVAAESFPAFGTIGDVATRKREVAAFLAHISQATSGERSDVENPHAWGLCHINTTTVTENDFCTSSDWPCAAGKKYSPRGPIQLTHNFNYGLAGQAIGEDLIQNPDLVEKDPIISFKTALWFWMSQHDNKPSCHDIVLNANSAANRIPNKGVIGNIISRAFGHDDFAVRSSSIGFYKRYCDMLGVSYGHDLKYWFDNTPSSEFQRIQMRVAA

How the values were obtained:
[1] = test system: Herpes simplex virus-1 (KOS); assay: microbe, parasite or virus in culture; type: cell-based; settings: Human alphaherpesvirus 1, HEL, read-out: Antiviral EC50 Herpes simplex virus-1 (KOS)
[2] = test system: Herpes simplex virus-2 (G); assay: microbe, parasite or virus in culture; type: cell-based; settings: Human alphaherpesvirus 2, HEL, read-out: Antiviral EC50 Herpes simplex virus-2 (G)
Vaccinia virus = assay: microbe, parasite or virus in culture; type: cell-based; settings: Orthopoxvirus vaccinia, HEL, read-out: Antiviral EC50 Vaccinia virus
in vitro [3] = settings: human
Adeno virus-2 = assay: organism not typed; type: cell-based; settings: HEL, read-out: Antiviral EC50 Adeno virus-2
Human Coronavirus (229E) = assay: microbe, parasite or virus in culture; type: cell-based; settings: for EC50: Human coronavirus 229E, HEL, read-out: Antiviral EC50 Human Coronavirus (229E)
[4] = test system: Vesicular stomatitis virus; assay: microbe, parasite or virus in culture; type: cell-based; settings: Vesicular stomatitis virus, HEp-2, read-out: Antiviral EC50 Vesicular stomatitis virus
Coxsackie virus B4 [5] = assay: Antiviral CPE assay, Coxsackie virus B4 in HEp-2 cells; type: cell-based; settings: Enterovirus B, B4, HEp-2
[6] = test system: Respiratory syncytial virus; assay: Antiviral CPE assay, Respiratory syncytial virus in HEp-2 cells; type: cell-based; settings: human respiratory syncytial virus, HEp-2
[7] = Cytotoxicity in Vero cell cultures (MTS); type: cell-based, African green monkey; settings: African green monkey, Vero cells (kidney epithelial cells), uninfected, MTS assay, read-out: Cytotoxixity CC50
Reo-virus-1 = assay: Antiviral CPE assay, Reovirus-1 in Vero cells; type: cell-based; settings: Vero
Sindbis virus = assay: Antiviral CPE assay, Sindbis virus in Vero cells; type: cell-based; settings: Sindbis virus, Vero
Coxsackie virus B4 [8] = assay: Antiviral CPE assay, Coxsackie virus B4 in Vero cells; type: cell-based; settings: Enterovirus B, B4, Vero
Punta Toro virus = assay: Antiviral CPE assay, Punta Toro virus in Vero cells; type: cell-based; settings: Punta Toro virus, Vero
Yellow Fever virus = assay: microbe, parasite or virus in culture; type: cell-based; settings: Yellow fever virus, Vero, read-out: Antiviral EC50 Yellow Fever virus, Vero cell cultures
Zika virus = assay: Antiviral CPE assay, Zika virus in Vero cells; type: cell-based; settings: Zika virus, Vero
[9] = test system: Influenza A virus A/Ned/378/05A (H1N1); assay: Antiviral CPE assay, Influenza A (H1N1) in MDCK cells; type: cell-based; settings: Influenza A virus, H1N1, MDCK
[10] = test system: Influenza A virus A/HK/7/87 (H3N2); assay: Antiviral CPE assay, Influenza A (H3N2) in MDCK cells; type: cell-based; settings: Influenza A virus, H3N2, MDCK
[11] = test system: Influenza B virus B/Ned/537/05; assay: Antiviral CPE assay, Influenza B in MDCK cells; type: cell-based; settings: Influenza B virus; MDCK cell cultures
[12] = test system: Human immunodeficiency virus (IIIB); assay: Antiviral CPE assay, HIV-1 (IIIB) in MT-4 cells; type: cell-based, human immunodeficiency virus type 1 (HIV-1); settings: Human immunodeficiency virus 1, IIIB, MT4
[13] = test system: Human immunodeficiency virus (ROD); assay: Antiviral CPE assay, HIV-2 (ROD) in MT-4 cells; type: cell-based; settings: Human immunodeficiency virus 2, MT4
in vitro [14] = settings: dog
[15] = Cytotoxicity in MT-4 cell cultures (MTS); settings: human, Cytotoxixity CC50, MT-4 cell cultures, MTS assay
[16] = Cytotoxicity in HEp-2 cell cultures (MTS); settings: human

Molecule | EC50 [1] | EC50 [2] | EC50 (Vaccinia virus) | EC50 (Adeno virus-2) | EC50 [4] | EC50 (Coxsackie virus B4 [5]) | EC50 [6] | CC50 [7] | EC50 (Reo-virus-1) | EC50 (Sindbis virus) | EC50 (Coxsackie virus B4 [8]) | EC50 (Punta Toro virus) | EC50 (Yellow Fever virus) | EC50 [9] | EC50 [10] | EC50 [11] | EC50 [12] | EC50 [13] | CC50 (in vitro [14]) | CC50 [15] | also measured
Nc1nc2c(ncn2COCCO)c(=O)[nH]1 [Acyclovir, reference compound] | 1.9 µM | 0.5 µM | > 250 µM |  |  |  |  |  |  |  |  |  |  |  |  |  |  |  |  |  | CC50 (in vitro [3]): > 250 µM
Cc1cn([C@H]2C[C@H](F)[C@@H](CO)O2)c(=O)[nH]c1=O [Alovudine, reference compound] |  |  |  | 0.4 µM |  |  |  |  |  |  |  |  |  |  |  |  |  |  |  |  | 
O=c1[nH]c(=O)n([C@H]2C[C@H](O)[C@@H](CO)O2)cc1/C=C/Br [Brivudin, reference compound] | 0.2 µM | 22.1 µM | 12.6 µM |  |  |  |  |  |  |  |  |  |  |  |  |  |  |  |  |  | CC50 (in vitro [3]): > 250 µM
Nc1ccn(C[C@@H](CO)OCP(=O)(O)O)c(=O)n1 [Cidofovir, reference compound] | 39.3 µM | 7.5 µM | 8.7 µM | 9.9 µM |  |  |  |  |  |  |  |  |  |  |  |  |  |  |  |  | CC50 (in vitro [3]): > 250 µM
Nc1nc2c(ncn2C2CC(O)C(CO)C3CC32)c(=O)[nH]1 (stereo not drawn) [Compound 1b, 2-Amino-9-[(1′S,2′S,4′R,5′S,6′S)-4′-hydroxy-5′-(hydroxymethyl) Bicyclo[4.1.0]hept-2′-yl]-1,9-dihydro-6H-purin-6-one] | > 50 µg/mL | > 50 µg/mL | > 50 µg/mL | > 50 µg/mL | > 50 µg/mL | > 50 µg/mL | > 50 µg/mL | > 50 µg/mL | > 50 µg/mL | > 50 µg/mL | > 50 µg/mL | > 50 µg/mL | > 50 µg/mL | > 50 µg/mL | > 50 µg/mL | > 50 µg/mL | > 125 µg/mL | > 125 µg/mL | > 50 µg/mL | > 125 µg/mL | EC50 (Human Coronavirus (229E)): > 50 µg/mL; EC50 (Zika virus): > 50 µg/mL; CC50 [16]: > 50 µg/mL
NC(=O)c1cn(C2CC(O)C(CO)C3CC32)nn1 (stereo not drawn) [Compound 3a, 1-[(1′S,2′S,4′R,5′R,6′R)-4′-Hydroxy-5′-(hydroxymethyl)bicyclo[4.1.0]hept-2′-yl]-1H-1,2,3-triazole-4-carboxamide] | > 50 µg/mL | > 50 µg/mL | > 50 µg/mL | > 50 µg/mL | > 50 µg/mL | > 50 µg/mL | > 50 µg/mL | > 50 µg/mL | > 50 µg/mL | > 50 µg/mL | > 50 µg/mL | > 50 µg/mL | > 50 µg/mL | > 50 µg/mL | > 50 µg/mL | > 50 µg/mL | > 125 µg/mL | > 125 µg/mL | > 50 µg/mL | > 125 µg/mL | EC50 (Human Coronavirus (229E)): > 50 µg/mL; EC50 (Zika virus): > 50 µg/mL; CC50 [16]: > 50 µg/mL
OCC1C(O)CC(n2cc(-c3ccccc3)nn2)C2CC12 [Compound 3c, (1R,2R,3R,5S,6S)-2-(Hydroxymethyl)-5-(4″-phenyl-1H-1″,2″,3″-triazol-1-yl)bicyclo[4.1.0]heptan-3-ol] | > 50 µg/mL | > 50 µg/mL | > 50 µg/mL | > 50 µg/mL | > 50 µg/mL | > 50 µg/mL | > 50 µg/mL | > 50 µg/mL | > 50 µg/mL | > 50 µg/mL | > 50 µg/mL | > 50 µg/mL | > 50 µg/mL | > 50 µg/mL | > 50 µg/mL | > 50 µg/mL | > 96.2 µg/mL | > 96.2 µg/mL | 20.4 µg/mL | 96.2 µg/mL (≈ 337 µM) | EC50 (Human Coronavirus (229E)): > 50 µg/mL; EC50 (Zika virus): > 50 µg/mL; CC50 [16]: > 50 µg/mL
OCc1cn(C2CC(O)C(CO)C3CC32)nn1 [Compound 3e, (1R,2R,3R,5S,6S)-2-(Hydroxymethyl)-5-[4″-(hydroxymethyl)-1H-1″,2″,3″-triazol-1‴-yl]bicyclo[4.1.0]heptan-3-ol] | > 50 µg/mL | > 50 µg/mL | > 50 µg/mL | > 50 µg/mL | > 50 µg/mL | > 50 µg/mL | > 50 µg/mL | > 50 µg/mL | > 50 µg/mL | > 50 µg/mL | > 50 µg/mL | > 50 µg/mL | > 50 µg/mL | > 50 µg/mL | > 50 µg/mL | > 50 µg/mL | > 116 µg/mL | > 116 µg/mL | > 50 µg/mL | ≥ 116 µg/mL | EC50 (Human Coronavirus (229E)): > 50 µg/mL; EC50 (Zika virus): > 50 µg/mL; CC50 [16]: > 50 µg/mL
Cc1cn(C2CC=C(CO)C3CC32)c(=O)[nH]c1=O (stereo not drawn) [Compound 19, 1-[(1′S,2′S,6′R)-5′-(hydroxymethyl)-bicyclo[4.1.0]hept-4′-en-2′-yl]-5-methylpyrimidine-2,4(1H,3H)-dione] | > 50 µg/mL | > 50 µg/mL | > 50 µg/mL | > 50 µg/mL | > 50 µg/mL | > 50 µg/mL | > 50 µg/mL | > 50 µg/mL | > 50 µg/mL | > 50 µg/mL | > 50 µg/mL | > 50 µg/mL | > 50 µg/mL | > 50 µg/mL | > 50 µg/mL | > 50 µg/mL | > 109 µg/mL | > 109 µg/mL | 18.6 µg/mL | 109 µg/mL (≈ 440 µM) | EC50 (Human Coronavirus (229E)): > 50 µg/mL; EC50 (Zika virus): > 50 µg/mL; CC50 [16]: > 50 µg/mL
O=c1[nH]cnc2c1ncn2[C@H]1CC[C@@H](CO)O1 [Didanosine, reference compound] |  |  |  |  |  |  |  |  |  |  |  |  |  |  |  |  | 17.9 µg/mL (≈ 76 µM) | 19.4 µg/mL (≈ 82.1 µM) |  | > 50 µg/mL | 
Nc1nc(O)c2ncn(COC(CO)CO)c2n1 [Ganciclovir, reference compound] | 0.4 µM | 0.09 µM | > 100 µM |  |  |  |  |  |  |  |  |  |  |  |  |  |  |  |  |  | CC50 (in vitro [3]): > 100 µM
COc1c(C)c2c(c(O)c1C/C=C(\C)CCC(=O)O)C(=O)OC2 [Mycophenolic acid, reference compound] |  |  |  |  |  |  |  | > 100 µM | 7.1 µM | 3.6 µM | > 100 µM | > 100 µM | 2.6 µM |  |  |  |  |  |  |  | EC50 (Zika virus): 0.2 µM
NC(=O)c1ncn([C@@H]2O[C@H](CO)[C@@H](O)[C@H]2O)n1 [Ribavirin, reference compound] |  |  |  |  | 149 µM | 117 µM | 6.7 µM |  |  |  |  |  |  | 7.4 µM | 6.4 µM | 9.3 µM |  |  | > 100 µM |  | CC50 [16]: > 250 µM
CC(N)C12CC3CC(CC(C3)C1)C2 (centres unmarked) [Rimantadine, reference compound] |  |  |  |  |  |  |  |  |  |  |  |  |  | 88.8 µM | 0.06 µM | > 200 µM |  |  | > 200 µM |  | 
Nc1ccn([C@H]2CC[C@@H](CO)O2)c(=O)n1 [Zalcitabine, reference compound] |  |  |  | 12 µM |  |  |  |  |  |  |  |  |  |  |  |  |  |  |  |  | 
CC(=O)N[C@H]1[C@H]([C@H](O)[C@H](O)CO)OC(C(=O)O)=C[C@@H]1N=C(N)N [Zanamivir, reference compound] |  |  |  |  |  |  |  |  |  |  |  |  |  | 0.9 µM | 4.9 µM | 1.4 µM |  |  | > 100 µM |  | 
Cc1cn([C@H]2C[C@H](N=[N+]=[N-])[C@@H](CO)O2)c(=O)[nH]c1=O [Zidovudine, reference compound] |  |  |  |  |  |  |  |  |  |  |  |  |  |  |  |  | 0.002 µg/mL (≈ 0.00748 µM) | 0.002 µg/mL (≈ 0.00748 µM) |  | > 2 µg/mL | 
B1 |  |  |  |  |  |  |  |  |  |  |  |  |  |  |  |  |  |  |  |  | Antiviral EC50 Human Coronavirus (229E) (Human Coronavirus (229E); HEL cell cultures): 1.2 µg/mL
